US20190343190A1, “MATERIALS INCLUDING POLYMERIC FIBERS INCORPORATING MICROCAPSULES OR NANOCAPSULES INCLUDING AN ESSENTIAL OIL” (President and Fellows of Harvard College, priority 2016, published 2019)

What was measured:
leucine dehydrogenase = leucine dehydrogenase (Bacillus subtilis, UniProt P54531); settings: cited from earlier work
[1] = Polystyrene-water partition of citral; assay type: physicochemical
Description: The polymer matrix should not dissolve through bulk degradation or boundary degradation as it is very inert and unreactive, plus divinylbenzene provides additional stability. […] This is extremely high: its predicts the existence of approximately 5000 molecules of citral within the nanocapsule core or polystyrene shell for every molecule in surrounding water. This dictates a fixed equilibrium between concentration in polystyrene nanocapsule Cp and surrounding water Cw given by the equation: Cp/Cw=10^3.7=5011

Chain of leucine dehydrogenase (P54531 whole entry): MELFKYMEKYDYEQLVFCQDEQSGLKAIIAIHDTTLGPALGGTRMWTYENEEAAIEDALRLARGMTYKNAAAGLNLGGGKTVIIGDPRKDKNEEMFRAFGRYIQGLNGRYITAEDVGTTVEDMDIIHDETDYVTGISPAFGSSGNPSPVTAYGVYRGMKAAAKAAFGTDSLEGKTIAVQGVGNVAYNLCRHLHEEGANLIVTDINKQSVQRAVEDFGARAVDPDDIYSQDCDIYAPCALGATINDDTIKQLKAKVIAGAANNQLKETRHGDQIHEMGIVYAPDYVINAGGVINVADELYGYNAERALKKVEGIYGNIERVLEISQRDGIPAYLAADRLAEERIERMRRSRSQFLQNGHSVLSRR

Structure (SMILES): CC(C)=CCCC(C)=CC=O [citral]
- Binding affinity compared with branched chain amino acids (leucine dehydrogenase): higher binding affinity
- Molecules within the nanocapsule core or polystyrene shell for every molecule in surrounding water [1]: approximately 5000
